According to PubChem BioAssay (NCI):
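1) Cells in 96-well plates. 2) Compound, 48 h, 5 concentrations. 3) Linear interpolation between surrounding doses. 4) Unreached endpoint = highest concentration. At the TGI there is no net growth.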

Assays:
Assay in all cases: NCI tumour cell line growth inhibition, 48 h
SR leukemia = tested on: SR leukemia
OVCAR-3 ovarian = tested on: OVCAR-3 ovarian
MDA-N = tested on: MDA-N
MALME-3M melanoma = tested on: MALME-3M melanoma
EKVX NSCLC = tested on: EKVX NSCLC
786-0 renal = tested on: 786-0 renal
M14 melanoma = tested on: M14 melanoma
MCF7 breast = tested on: MCF7 breast
HL-60(TB) leukemia = tested on: HL-60(TB) leukemia
MDA-MB-231 breast = tested on: MDA-MB-231 breast
OVCAR-5 ovarian = tested on: OVCAR-5 ovarian
IGROV1 ovarian = tested on: IGROV1 ovarian
RPMI-8226 leukemia = tested on: RPMI-8226 leukemia
HCT-116 colon = tested on: HCT-116 colon
HT29 colon = tested on: HT29 colon
SF-295 CNS = tested on: SF-295 CNS
RXF 393 renal = tested on: RXF 393 renal
NCI-H522 lung = tested on: NCI-H522 lung

SMILES	TGI (SR leukemia)	TGI (OVCAR-3 ovarian)	TGI (MDA-N)	TGI (MALME-3M melanoma)	TGI (EKVX NSCLC)	TGI (786-0 renal)	TGI (M14 melanoma)	TGI (MCF7 breast)	TGI (HL-60(TB) leukemia)	TGI (MDA-MB-231 breast)	TGI (OVCAR-5 ovarian)	TGI (IGROV1 ovarian)	TGI (RPMI-8226 leukemia)	TGI (HCT-116 colon)	TGI (HT29 colon)	TGI (SF-295 CNS)	TGI (RXF 393 renal)	TGI (NCI-H522 lung)
CCOC(=O)C1(Cc2ccccc2)Cc2cc3c(cc2C1=O)CCC3 (centres undefined)	> 100 µM	> 100 µM	> 100 µM	> 100 µM	> 100 µM	> 100 µM	> 100 µM	> 100 µM	> 100 µM	> 100 µM	> 100 µM	> 100 µM	> 100 µM	> 100 µM	> 100 µM	> 100 µM	> 100 µM	–
COc1ccc(-n2nnc3c(C#N)c(-c4ccccc4)c(C)n3c2=O)cc1	91 µM	> 100 µM	> 100 µM	> 100 µM	> 100 µM	40 µM	> 100 µM	> 100 µM	68.2 µM	81.6 µM	> 100 µM	> 100 µM	> 100 µM	> 100 µM	> 100 µM	> 100 µM	93.8 µM	> 100 µM
Cc1cc(=O)oc2c(CNC(C)C(=O)O)c(O)ccc12 (centres undefined)	> 100 µM	> 100 µM	> 100 µM	> 100 µM	> 100 µM	> 100 µM	> 100 µM	> 100 µM	> 100 µM	> 100 µM	> 100 µM	> 100 µM	> 100 µM	> 100 µM	> 100 µM	> 100 µM	> 100 µM	> 100 µM
O=C1NCC2(CCN(Cc3ccccc3)CC2)N1	> 100 µM	> 100 µM	> 100 µM	> 100 µM	> 100 µM	> 100 µM	> 100 µM	> 100 µM	> 100 µM	> 100 µM	> 100 µM	> 100 µM	> 100 µM	> 100 µM	> 100 µM	> 100 µM	> 100 µM	> 100 µM
Cn1c(=O)oc2cc(C(=S)N3CCC(Cc4ccccc4)CC3)ccc21	> 100 µM	> 100 µM	> 100 µM	> 100 µM	> 100 µM	> 100 µM	> 100 µM	> 100 µM	> 100 µM	> 100 µM	> 100 µM	> 100 µM	> 100 µM	> 100 µM	> 100 µM	> 100 µM	> 100 µM	–
CN(C)CCSC(=Nc1ccccc1)N1C=COC=C1	> 100 µM	> 81.8 µM	45.4 µM	> 81.8 µM	> 100 µM	38.9 µM	36.2 µM	33.9 µM	> 100 µM	41.1 µM	> 100 µM	33.4 µM	> 100 µM	45 µM	> 100 µM	> 100 µM	72.8 µM	34 µM
COc1cc(CNc2nc3ccccc3nc2-c2cccs2)cc(OC)c1OC	> 100 µM	> 100 µM	95.8 µM	79.3 µM	> 100 µM	> 100 µM	–	> 100 µM	> 100 µM	> 100 µM	> 100 µM	> 100 µM	53.4 µM	> 100 µM	> 100 µM	> 100 µM	> 100 µM	38.7 µM
CCOC(=O)N1CC2(C(=O)OC)C=CC1C(C(=O)OC)C2 (centres undefined)	> 100 µM	> 100 µM	> 100 µM	> 100 µM	> 100 µM	> 100 µM	> 100 µM	> 100 µM	> 100 µM	> 100 µM	> 100 µM	> 100 µM	> 100 µM	> 100 µM	–	> 100 µM	> 100 µM	> 100 µM
CCc1ccc(CCC(=O)O)nc1	> 100 µM	> 100 µM	> 100 µM	> 100 µM	> 100 µM	> 100 µM	> 100 µM	> 100 µM	> 100 µM	> 100 µM	> 100 µM	> 100 µM	> 100 µM	> 100 µM	> 100 µM	> 100 µM	> 100 µM	> 100 µM
OCCOCCN1CCN(c2nc(N3CCCC3)c3nc(Cl)c(NCc4ccccc4)nc3n2)CC1	17.8 µM	29.2 µM	22.7 µM	29.9 µM	27.1 µM	26.5 µM	24.8 µM	29.5 µM	29 µM	32.7 µM	28.9 µM	33.9 µM	27.9 µM	26.4 µM	13.7 µM	29.3 µM	11.8 µM	31.5 µM
CC(=O)c1ccc(N2CCN(c3c(O)c4c(c(O)c3Cl)C(=O)C=CC4=O)CC2)cc1	8.33 µM	18.2 µM	10.8 µM	23.5 µM	46.7 µM	27.2 µM	6.76 µM	2.8 µM	0.871 µM	5.5 µM	33 µM	15.5 µM	9.43 µM	11.9 µM	–	33.9 µM	9.44 µM	–
Oc1ccc(-c2c3ccccc3c(-c3ccc(OCCBr)cc3)c3ccccc23)cc1	92.6 µM	33.7 µM	59.8 µM	33.8 µM	> 100 µM	44.5 µM	37 µM	32 µM	70.1 µM	44.6 µM	> 100 µM	44.2 µM	63.5 µM	> 100 µM	43.2 µM	32.7 µM	64.3 µM	74 µM
O=C(O)CN1CCNCCN(CC(=O)O)CCNCC1	> 96.5 µM	> 100 µM	> 31.6 µM	> 100 µM	> 100 µM	> 100 µM	> 100 µM	> 100 µM	15.2 µM	> 100 µM	> 100 µM	> 100 µM	> 100 µM	> 100 µM	> 100 µM	> 100 µM	> 100 µM	> 100 µM
COc1ccc(-c2nc(N)c(C#N)c3c2CCSc2ccc(C)cc2-3)cc1OC	18.1 µM	> 100 µM	> 45.5 µM	> 100 µM	> 85.3 µM	> 61.1 µM	> 100 µM	63.5 µM	17.7 µM	35.8 µM	> 100 µM	> 91.2 µM	7.09 µM	30.7 µM	> 53.1 µM	> 100 µM	> 100 µM	> 100 µM
O=C(CC(=O)N(C(=O)c1ccccc1)c1ccc(Cl)cc1)N/N=C\c1ccccc1O	> 100 µM	> 100 µM	> 100 µM	> 100 µM	> 100 µM	> 100 µM	> 100 µM	> 100 µM	> 100 µM	> 100 µM	> 100 µM	> 100 µM	> 100 µM	> 100 µM	> 100 µM	80.9 µM	> 100 µM	> 100 µM
CC(Oc1ccccc1)C(=O)NN (centres undefined)	> 100 µM	> 100 µM	> 100 µM	> 100 µM	> 100 µM	> 100 µM	> 100 µM	> 100 µM	> 100 µM	> 100 µM	> 100 µM	> 100 µM	> 100 µM	> 100 µM	> 100 µM	> 100 µM	> 100 µM	> 100 µM
NCCCCC(N)C(=O)N1CCN(c2nc(N3CCCC3)c3nc(Cl)c(NCc4ccccc4)nc3n2)CC1 (centres undefined)	44.9 µM	36.9 µM	33.7 µM	43.5 µM	36 µM	33.1 µM	33.9 µM	38.1 µM	36.1 µM	34.3 µM	33.9 µM	33.9 µM	44.4 µM	32.1 µM	38 µM	35.4 µM	34 µM	42.1 µM
COc1ccc(-c2nc(N(C)C)c3ccccc3n2)cc1	29.1 µM	–	32.5 µM	42.1 µM	22.3 µM	32.3 µM	44.2 µM	24.1 µM	32.2 µM	96.5 µM	62.2 µM	> 100 µM	24.3 µM	17.4 µM	22.7 µM	46.3 µM	24.7 µM	27.8 µM
Brc1ccccc1/C=C\C1(c2ccccc2)OCCO1	8.33 µM	25.5 µM	25.3 µM	29.9 µM	30.6 µM	24.3 µM	25.6 µM	18.1 µM	> 52.3 µM	25.4 µM	29.5 µM	29.3 µM	6.78 µM	11.9 µM	19 µM	26.4 µM	27.7 µM	22.6 µM
COC(=O)C1=C(C(=O)OC)SC(=C2c3ccsc3-c3sccc32)S1	> 100 µM	> 100 µM	> 100 µM	> 100 µM	> 100 µM	56.8 µM	> 100 µM	> 100 µM	58.7 µM	> 100 µM	> 100 µM	> 100 µM	> 100 µM	> 100 µM	> 100 µM	53.5 µM	41.6 µM	–
CCOC(=O)C1=C(OS(=O)(=O)C(F)(F)F)CCCC1	> 100 µM	> 100 µM	> 100 µM	> 100 µM	> 100 µM	> 100 µM	> 100 µM	> 100 µM	> 100 µM	> 100 µM	> 100 µM	> 100 µM	> 100 µM	–	> 100 µM	> 100 µM	> 100 µM	> 100 µM
Cn1c(N(CCO)CCO)cnc1[N+](=O)[O-]	> 100 µM	> 100 µM	> 100 µM	> 100 µM	> 100 µM	> 100 µM	> 100 µM	> 100 µM	> 100 µM	> 100 µM	> 100 µM	> 100 µM	> 100 µM	> 100 µM	> 100 µM	> 100 µM	> 100 µM	> 100 µM
CC(C)(C)[Si](C)(C)OCC1OC(n2cc(F)c(=O)[nH]c2=O)CC1O[Si](C)(C)C(C)(C)C (centres undefined)	7.08 µM	32.5 µM	18.4 µM	31.2 µM	21.7 µM	20.9 µM	30.9 µM	24.9 µM	12.5 µM	22 µM	33 µM	19.7 µM	12.9 µM	19.8 µM	> 100 µM	21.4 µM	16.2 µM	12.7 µM
CSc1c(CC(=O)O)n(Cc2ccccc2)c2ccccc12	> 100 µM	> 100 µM	> 100 µM	> 100 µM	> 100 µM	> 100 µM	> 100 µM	> 100 µM	> 100 µM	> 100 µM	> 100 µM	> 100 µM	> 100 µM	> 100 µM	> 100 µM	> 100 µM	> 100 µM	> 100 µM
Nc1ccn([C@H]2CO[C@@H](CO)O2)c(=O)n1	> 100 µM	> 100 µM	> 100 µM	> 100 µM	> 100 µM	> 100 µM	19.1 µM	> 100 µM	> 67.2 µM	> 100 µM	> 100 µM	> 100 µM	> 100 µM	> 100 µM	> 100 µM	> 100 µM	> 83.3 µM	> 100 µM
COc1c(C(=O)/C(=N/Nc2ccccc2)C(C)=O)c(O)c(OC)c2occc12	> 100 µM	> 100 µM	> 100 µM	92 µM	> 100 µM	> 100 µM	> 100 µM	> 100 µM	> 100 µM	> 100 µM	> 100 µM	> 100 µM	> 100 µM	> 100 µM	> 100 µM	> 100 µM	> 100 µM	> 100 µM
O=C(Cn1c(C(=O)/C=C/c2ccco2)nc2ccccc21)c1ccc(Cl)cc1	16.4 µM	> 100 µM	50.2 µM	40.2 µM	–	31.4 µM	58.2 µM	76.4 µM	41 µM	59.8 µM	> 100 µM	57.1 µM	32.9 µM	39.9 µM	92.6 µM	–	> 100 µM	–
